Laboratory results: patent US20240287071A1, “CLASS OF IMIDAZOLIDINOPYRIMIDONE COMPOUNDS AND USE THEREOF IN TREATMENT OF HSCLPP-MEDIATED DISEASES” (SICHUAN UNIVERSITY, priority 2021, published 2024)

Experiments:
[1] = biological target: HsClpP (Homo sapiens, UniProt Q16740); assay: HsClpP enzyme hydrolysis of short peptide substrate AC-WLA-AMC; details: promoting hydrolysis of short peptide substrate by HsClpP, relative to blank control
Protocol: This study evaluated the regulatory activity of the compounds on HsClpP by examining the hydrolysis effects of HsClpP protein on the AC-WLA-AMC substrate . […] The small molecules and the HsClpP protein solution were added to a flat-bottomed black 96-well plate, with three replicate wells for each group. […] DMSO was used as a negative control instead of small molecules. The multiple of readings at different concentrations against the readings of DMSO group was recorded as an index for evaluation of hydrolysis activity. . . . GraphPad Prism was used to plot the obtained multiple values and calculate the EC50 values.

[2] = tested on: HCT116; assay: CCK-8 in vitro anti-tumor proliferation assay; assay type: cell-based; details: Homo sapiens, HCT-116; Table 5; HCT116; 72 hours; read-out: IC50
Protocol: Example 3: In vitro anti-tumor proliferation assay of the compounds. The purpose of this experiment was to use CCK-8 to detect the in vitro inhibitory activity of the compounds of the present invention against the proliferation of tumor cells. The main reagents, such as RPMI-1640, DMEM high-glucose culture medium, fetal bovine serum, trypsin, etc., were purchased from Gibco BRL. CCK8 and DMSO were products of Sigma. For in vitro experiment, the test compounds were prepared as 10 mM stock solutions in DMSO and stored at −20° C. in the refrigerator in the dark for later use, then diluted to desired concentration with complete culture medium before use. The human lung cancer cells, colon cancer cells, breast cancer cells, glioblastoma cells, human myelomonocytic leukemia cells, and human Burkitt's lymphoma cells used in this experiment were all purchased from the American ATCC company and preserved in laboratory of the inventors. All the above cell lines were cultured in RPMI-1640 complete medium or DMEM complete medium containing 10% fetal bovine serum, 100 U/mL penicillin, and 100 μg/mL streptomycin under 5% carbon dioxide, 37° C. conditions. […] The previous culture medium was discarded, fresh culture medium was added to resuspend the cells, and then the cells were counted. According to the growth rate of different cells, the cell seeding concentration was determined, generally being 3000-5000 cells/well. After determining the seeding concentration, the cell suspension was diluted to desired concentrations with fresh culture medium, and then added to a 96-well plate with 100 μL per well, and 200 μL of PBS was added to the edge wells to prevent evaporation of the culture medium. On the second day, drug treatment was performed. First, the compounds were diluted into a series of gradients with culture medium, and then the drug solution was added to the 96-well plate, with 3 parallel wells for each gradient. Each plate set a blank control group, and ONC201 was used as the positive control group.

Sequence of HsClpP (Q16740 57-277): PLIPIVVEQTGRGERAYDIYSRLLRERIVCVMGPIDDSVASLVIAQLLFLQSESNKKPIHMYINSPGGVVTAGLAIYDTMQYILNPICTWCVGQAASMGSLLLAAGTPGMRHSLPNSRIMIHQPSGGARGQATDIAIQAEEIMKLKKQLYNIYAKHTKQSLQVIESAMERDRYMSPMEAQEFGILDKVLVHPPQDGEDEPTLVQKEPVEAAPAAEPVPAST

SMILES	Regulatory efficacy 1 μM [1]	Regulatory efficacy 10 μM [1]	IC50 [2] [nM]
CN1CCn2c1nc(=O)c1c2CCN(Cc2ccccc2)C1 [Compound 2, 7-benzyl-3-methyl-2,3,6,7,8,9-hexahydroimidazo[1,2-a]pyrido[3,4-e]pyrimidin-5(1H)-one]	+ (+ indicating that the increased efficacy is less than 50% of the blank control group)	+ (+ indicating that the increased efficacy is less than 50% of the blank control group)	> 10000
O=c1nc2n(c3c1CN(Cc1ccccc1)CC3)CCN2CC1CC1 [Compound 5, 7-benzyl-3-cyclopropylmethyl-2,3,6,7,8,9-hexahydroimidazo[1,2-a]pyrido[3,4-e]pyrimidin-5(1H)-one]	+ (+ indicating that the increased efficacy is less than 50% of the blank control group)	+ +	> 10000
O=c1nc2n(c3c1CN(Cc1ccccc1)CC3)CCN2Cc1ccc2ccccc2c1 [Compound 8, 7-benzyl-3-(2-naphthylmethyl)-2,3,6,7,8,9-hexahydroimidazo[1,2-a]pyrido[3,4-e]pyrimidin-5(1H)-one]	+ +	+ +	300
Cc1ccc(CN2CCn3c2nc(=O)c2c3CCN(Cc3ccccc3)C2)cc1 [Compound 12, 7-benzyl-3-(4-methylbenzyl)-2,3,6,7,8,9-hexahydroimidazo[1,2-a]pyrido[3,4-e]pyrimidin-5(1H)-one]	+ +	+ +	200
O=c1nc2n(c3c1CN(Cc1ccccc1)CC3)CCN2Cc1cccc(F)c1 [Compound 63, 7-Benzyl-3-(3-fluorobenzyl)-2,3,6,7,8,9-hexahydroimidazo[1,2-a]pyrido[3,4-e]pyrimidin-5(1H)-one]	+ (+ indicating that the increased efficacy is less than 50% of the blank control group)	+ +	
CCN1CCn2c1nc(=O)c1c2C(F)(F)CN(Cc2ccccc2)C1 [Compound 65, 7-Benzyl-3-ethyl-9,9-difluoro-2,3,6,7,8,9-hexahydroimidazo[1,2-a]pyrido[3,4-e]pyrimidin-5(1H)-one]	+ (+ indicating that the increased efficacy is less than 50% of the blank control group)	+ +	
O=c1nc2n(c3c1CN(Cc1ccccc1)CC3(F)F)CCN2CCc1ccccc1 [Compound 69, 7-Benzyl-9,9-difluoro-3-phenylethyl-2,3,6,7,8,9-hexahydroimidazo[1,2-a]pyrido[3,4-e]pyrimidin-5(1H)-one]	+ +	+ +	
O=c1nc2n(c3c1CN(Cc1ccccc1)CC3(F)F)CCN2Cc1ccco1 [Compound 70, 7-Benzyl-9,9-difluoro-3-(furan-2-ylmethyl)-2,3,6,7,8,9-hexahydroimidazo [1,2-a]pyrido[3,4-e]pyrimidin-5(1H)-one]	+ (+ indicating that the increased efficacy is less than 50% of the blank control group)	+ +	
O=c1nc2n(c3c1CN(Cc1ccccc1)CC3(F)F)CCN2Cc1ccc(C(F)(F)F)cc1 [Compound 73, 7-Benzyl-9,9-difluoro-3-(4-(trifluoromethyl)benzyl)-2,3,6,7,8,9-hexahydroimidazo[1,2-a]pyrido[3,4-e]pyrimidin-5(1H)-one]	+ +	+ +	
COc1ccccc1CN1CCn2c1nc(=O)c1c2C(F)(F)CN(Cc2ccccc2)C1 [Compound 74, 7-Benzyl-9,9-difluoro-3-(2-methoxybenzyl)-2,3,6,7,8,9-hexahydroimidazo[1,2-a]pyrido[3,4-e]pyrimidin-5(1H)-one]	+ +	+ +	
CS(=O)(=O)c1ccc(CN2CCn3c2nc(=O)c2c3C(F)(F)CN(Cc3ccccc3)C2)cc1 [Compound 75, 7-Benzyl-9,9-difluoro-3-(4-(methylsulfonyl)benzyl)-2,3,6,7,8,9-hexahydroimidazo[1,2-a]pyrido[3,4-e]pyrimidin-5(1H)-one]	+ +	+ +	
O=c1nc2n(c3c1CN(Cc1ccccc1)CC3(F)F)CCN2Cc1ccc(Br)cc1 [Compound 78, 7-Benzyl-3-(4-bromobenzyl)-9,9-difluoro-2,3,6,7,8,9-hexahydroimidazo[1,2-a]pyrido[3,4-e]pyrimidin-5(1H)-one]	+ +	+ +	
O=c1nc2n(c3c1CN(Cc1ccccc1)CC3(F)F)CCN2Cc1ccc(Cl)c(Cl)c1 [Compound 79, 7-Benzyl-3-(3,4-dichlorobenzyl)-9,9-difluoro-2,3,6,7,8,9-hexahydroimidazo[1,2-a]pyrido[3,4-e]pyrimidin-5(1H)-one]	+ +	+ +	
O=c1nc2n(c3c1CN(Cc1ccccc1)CC3(F)F)CCN2Cc1ccc(F)c(F)c1 [Compound 80, 7-Benzyl-3-(3,4-difluorobenzyl)-9,9-difluoro-2,3,6,7,8,9-hexahydroimidazo[1,2-a]pyrido[3,4-e]pyrimidin-5(1H)-one]	+ +	+ +	

Further lines, results first:

Regulatory efficacy 1 μM [1]	Regulatory efficacy 10 μM [1]	IC50 [2] [nM]	SMILES
+ +	+ +	2500	O=c1nc2n(c3c1CN(Cc1ccccc1)CC3)CCN2CC1CCCCC1 [Compound 6, 7-benzyl-3-cyclohexylmethyl-2,3,6,7,8,9-hexahydroimidazo[1,2-a]pyrido[3,4-e]pyrimidin-5(1H)-one]
+ +	+ +	500	O=c1nc2n(c3c1CN(Cc1ccccc1)CC3)CCN2Cc1ccccc1 [Compound 7, 7-benzyl-3-benzyl-2,3,6,7,8,9-hexahydroimidazo[1,2-a]pyrido[3,4-e]pyrimidin-5(1H)-one]
+ +	+ +	300	Cc1cccc(CN2CCn3c2nc(=O)c2c3CCN(Cc3ccccc3)C2)c1 [Compound 11, 7-benzyl-3-(3-methylbenzyl)-2,3,6,7,8,9-hexahydroimidazo[1,2-a]pyrido[3,4-e]pyrimidin-5(1H)-one]
+ +	+ +	1300	COc1ccccc1CN1CCn2c1nc(=O)c1c2CCN(Cc2ccccc2)C1 [Compound 13, 7-benzyl-3-(2-methoxybenzyl)-2,3,6,7,8,9-hexahydroimidazo[1,2-a]pyrido[3,4-e]pyrimidin-5(1H)-one]
+ +	+ +		COc1cccc(CN2CCn3c2nc(=O)c2c3CCN(Cc3ccccc3)C2)c1 [Compound 64, 7-Benzyl-3-(3-methoxybenzyl)-2,3,6,7,8,9-hexahydroimidazo[1,2-a]pyrido[3,4-e]pyrimidin-5(1H)-one]
+ +	+ +		O=c1nc2n(c3c1CN(Cc1ccccc1)CC3(F)F)CCN2CC1CCCCC1 [Compound 66, 7-Benzyl-3-(cyclohexylmethyl)-9,9-difluoro-2,3,6,7,8,9-hexahydroimidazo[1,2-a]pyrido[3,4-e]pyri midin-5(1H)-one]
+ +	+ +		O=c1nc2n(c3c1CN(Cc1ccccc1)CC3(F)F)CCN2c1ccccc1 [Compound 67, 7-Benzyl-9,9-difluoro-3-phenyl-2,3,6,7,8,9-hexahydroimidazo[1,2-a]pyrido[3,4-e]pyrimidin-5(1H)-one]
+ +	+ +		O=c1nc2n(c3c1CN(Cc1ccccc1)CC3(F)F)CCN2Cc1ccccc1 [Compound 68, 3,7-Dibenzyl-9,9-difluoro-2,3,6,7,8,9-hexahydroimidazo[1,2-a]pyrido[3,4-e]pyrimidin-5(1H)-one]
+ +	+ +		Cc1ccc(CN2CCn3c2nc(=O)c2c3C(F)(F)CN(Cc3ccccc3)C2)cc1 [Compound 72, 7-Benzyl-9,9-difluoro-3-(4-methylbenzyl)-2,3,6,7,8,9-hexahydroimidazo[1,2-a]pyrido[3,4-e]pyrimid in-5(1H)-one]
+ +	+ +		O=c1nc2n(c3c1CN(Cc1ccccc1)CC3(F)F)CCN2Cc1ccc(Cl)cc1 [Compound 77, 7-Benzyl-3-(4-chlorobenzyl)-9,9-difluoro-2,3,6,7,8,9-hexahydroimidazo[1,2-a]pyrido[3,4-e]pyrimidi n-5(1H)-one]
+ +	+ +		O=c1nc2n(c3c1CN(Cc1ccccc1)CC3(F)F)CCN2Cc1ccc(F)cc1F [Compound 81, 7-Benzyl-3-(2,4-difluorobenzyl)-9,9-difluoro-2,3,6,7,8,9-hexahydroimidazo[1,2-a]pyrido[3,4-e]pyrimidin-5(1H)-one]
